Columns and labels:
anti-CD19 CAR+ T cells [1] = assay: Pharmacokinetic analysis of CAR+ T cells and tumor cells in blood, bone marrow and spleen; format: in vivo, NSG mice
Description: (§1) NSG mice described in Example 2 were intravenously injected on day 0 with 5×10^5 Nalm-6 cells expressing firefly luciferase. […] To permit assessment of the effect of a combination therapy with the inhibitor, a suboptimal dose of anti-CD19 CAR T cells was i.v. injected into the mice at 5×10^5/mouse at day 5. As a control, mice were administered the vehicle control without administration of the CAR-T cells or inhibitor.
Samples were analyzed to assess presence and levels of CAR T cells (based on expression of the surrogate marker using an anti-EGFR antibody) and/or tumor cells at days 7, 12, 19 and 26 post CAR+ T cell transfer.

anti-CD19 CAR T cells [2] = assay: Gene expression analysis (Nanostring Immune V2 panel) after 18 days serial stimulation; format: cell-based, human; conditions: 50 nM or 500 nM; day 18
Text: At day 18 after serial stimulation, RNA was isolated from anti-CD19 CAR T cells and Nanostring Immune V2 panel tests were run across 594 genes. The log 2 (fold change) of each gene was plotted against the −log 10(Raw p-value) derived from ANOVA tests of unscaled housekeeping gene normalized to count data for treatment versus control.

anti-CD19 CAR T cells [3] = assay: Cytolytic activity of anti-CD19 CAR T cells co-cultured with K562-CD19 target cells in the presence of ibrutinib; format: cell-based, human
Text: (§2) To generate CAR-expressing T cells, T cells were isolated by immunoaffinity-based enrichment from three healthy human donor subjects, and cells from each donor were activated and transduced with a viral vector encoding an anti-CD19 CAR. The CAR contained an anti-CD19 scFv, an Ig-derived spacer, a human CD28-derived transmembrane domain, a human 4-1BB-derived intracellular signaling domain and a human CD3 zeta-derived signaling domain. The nucleic acid construct encoding the CAR also included a truncated EGFR (tEGFR) sequence for use as a transduction marker, separated from the CAR sequence by a self-cleaving T2A sequence.
(§3) CAR-expressing CD4+ and CD8+ cells were mixed 1:1 for each donor, individually, and the pooled cells for each donor assessed in vitro under various conditions.
CAR T cells generated as described above were plated in triplicate on Poly-D-Lysine plates and then co-cultured with ibrutinib-resistant CD19-expressing target cells (K562 cells transduced to express CD19, K562-CD19) at an effector to target (E:T) ratio of 2.5:1. The target cells were labeled with NucLight Red (NLR), to permit tracking of target cells by microscopy.

[4] = test system: anti-CD19 CAR-T cells from DLBCL subjects; assay: Serial restimulation and cytolytic function of anti-CD19 CAR-T cells manufactured from DLBCL patients; format: cell-based, human
Text: Anti-CD19 CAR-T cells were generated substantially as described in Example 1, except that T cells were isolated from two different human subjects having diffuse large B-cell lymphoma (DLBCL). […] Cells were subjected to serial restimulation over a 21 day culture period and monitored for cell expansion and cytotoxic activity.

anti-CD19 CAR T cells [5] = assay: Cytokine production in supernatants of CAR-T / K562-CD19 co-cultures (MSD); format: cell-based, human
Text: as §2, §3
CAR-T cells generated as described above were plated at 100,000 cells/well on 96 well Poly-D-Lysine coated plates to which irradiated target cells (K562-CD19) were added at an effector to target ratio of 2.5:1. […] Culture supernatants were harvested every 24 hrs at days 1, 2, 3 and 4, and IFNγ, IL-2, TNFα, IL-4 and IL-10 were measured from the culture supernatants using cytokine kits from Meso Scale Discovery (MSD).

anti-CD19 CAR+ T cells [6] = assay: Ex vivo immunophenotyping (t-SNE) of CAR+ T cells from bone marrow at day 12; format: in vivo, NSG mice; conditions: day 12 post CAR T transfer
Description: as §1
Cells were assessed for surface markers CD44, CD45RA, CD62L, CD154, CXCR3, CXCR4, and PD-1 by flow cytometry and T-distributed stochastic neighbor embedding (t-SNE) high dimensional analysis was performed using FlowJo software. […] FACs histograms showing the individual expression profiles of CD4, CD8, CD62L, CD45RA, CD44 and CXCR3 from the 4 gated t-SNE in FIG. 8B overlaid on the expression of the total population (shaded) is shown in FIG. 8C.

[7] = test system: CD19+Nalm-6 disseminated tumor line; assay: Nalm-6 disseminated tumor xenograft mouse model, ibrutinib in drinking water; format: in vivo, NSG mice
Description: as §1

[8] = test system: CD19+Nalm-6 disseminated tumor line; assay: Nalm-6 disseminated tumor xenograft mouse model, ibrutinib by daily oral gavage; format: in vivo, NOD/Scid/gc−/− (NSG) mice
Text: On day zero (0), NSG mice were intravenously injected with 5×10^5 Nalm-6 cells expressing firefly luciferase. […] To permit assessment of the effect of a combination therapy with the inhibitor, a suboptimal dose of anti-CD19 CAR T cells from two different donors (generated by transducing cells derived from samples of human donor subjects essentially as described above) were i.v. injected into each mouse at a concentration of 5×10^5 CAR+ T cells per mouse at day 5. […] Eight (N=8) mice per group were monitored.
Following treatment as described above, tumor growth over time was measured by bioluminescence imaging and the average radiance (p/s/cm^2/sr) was measured. Survival of treated mice also was assessed over time.

anti-CD19 CAR T cells [9] = assay: TH1 phenotype and marker flow cytometry of CAR T cells from serial restimulation; format: cell-based, human
Description: (§4) The ability of cells to expand ex vivo following repeated stimulations in some aspects can indicates capacity of CAR-T cells to persist (e.g., following initial activation) and/or is indicative of function and/or fitness in vivo (Zhao et al. (2015) Cancer Cell, 28:415-28). Anti-CD19 CAR+ T cells generated as described above were plated in triplicate at 100,000 cells/well on 96 well Poly-D-Lysine coated plates, and irradiated target cells (K562-CD19) were added at an effector to target ratio of 2.5:1. […] A total of 7 rounds of stimulation during a 25 day culture period were carried out.
A serial restimulation assay was performed as described above and cells were harvested at various times and analyzed by flow cytometry to assess percentage of TH1-phenotype (assessed as CD4+CXCR3+CRTH2−) T cells or TH2-phenotype (assessed as CD4+CXCR3−CRTH2+).

anti-CD19 CAR T cells [10] = assay: Expression of CAR-T cell surface markers by flow cytometry after stimulation with irradiated K562-CD19 cells; format: cell-based, human
Text: as §2, §3
CAR-T cells generated as described above were plated at 100,000 cells/well on 96 well Poly-D-Lysine coated plates. Irradiated K562-CD19 target cells were added at an effector to target ratio of 2.5:1. […] Cells were harvested at 1, 2, 3, and 4 days, and were analyzed by flow cytometry for T cell activation and differentiation surface markers CD69, CD107a, PD-1, CD25, CD38, CD39, CD95, CD62L, CCR7, CD45RO and for truncated EGFR (a surrogate marker for CAR-transduced cells).

anti-CD19 CAR T cells [11] = assay: Serial restimulation assay of anti-CD19 CAR+ T cells with K562-CD19 target cells; format: cell-based, human
Text: as §2, §3, §4

CAR-expressing T cells = assay: RNA-Seq molecular signature of CAR-expressing T cells after 18 days serial stimulation; format: cell-based, human; conditions: day 18
Description: RNA isolation was performed using the RNEasy Micro Kit (Qiagen). Samples were sequenced and RNASeq reads were mapped to the human genome (GRCh38) and aligned to the GENCODE release 24 gene model. […] Differentially expressed genes were identified by imposing a log2 fold change cutoff of 0.5 and a Benjamini-Hochberg adjusted false discovery rate (FDR) cutoff of 0.05.

In the case of `C=CC(=O)N1CCC[C@@H](n2nc(-c3ccc(Oc4ccccc4)cc3)c3c(N)ncnc32)C1` [ibrutinib], the “tumor cells in blood, bone marrow or spleen vs vehicle” value (anti-CD19 CAR+ T cells [1]; CAR+ cell treatment combined with ibrutinib) is reported as “significantly fewer tumor cells”, the “circulating CAR+ T cells vs CAR+ T cells and vehicle” value (anti-CD19 CAR+ T cells [1]; blood, days 7-26 post transfer, ibrutinib in drinking water) is reported as “significant increase in circulating CAR+ T cells” and the “number of cells in the blood” value (anti-CD19 CAR+ T cells [1]; day 19 post CAR-T cell transfer, p<0.05) is reported as “significant increase in the number of cells in the blood”. For the same molecule, the “gene expression across 594 genes” value (anti-CD19 CAR T cells [2]) was “did not significantly alter gene expression”, the “cytolytic function of anti-CD19 CAR T cells” value (anti-CD19 CAR T cells [3]; all concentrations tested (5000, 500, 50, 5, 0.5 nM) during co-culture) was “did not inhibit the cytolytic function” and the target cell killing (anti-CD19 CAR T cells [3]; one donor, P<0.0001) was “modestly increased target cell killing”. For the same molecule, the “cytolytic activity of anti-CD19 CAR-expressing T cells (target cell killing normalized to untreated control, AUC)” value (anti-CD19 CAR T cells [3]; two donors, up to supra-physiological 500 nM, E:T 2.5:1, 4 days) was “did not significantly impact cytolytic activity”, the cytolytic activity ([4]; 50 nM, after 16 days, one patient, P<0.01) was “increase in cytolytic activity” and the cytolytic function ([4]; 500 nM, after 16 days serial stimulation, each subject) was “increase in cytolytic function”. The “proliferation (cell doublings) of patient-derived CAR T cells” value ([4]; 50 and 500 nM, 21 day culture, two DLBCL patients) was “did not inhibit the proliferation”, the “IFN-γ and IL-2 production” value (anti-CD19 CAR T cells [5]; 50 nM ibrutinib) was “some increase” and the cytokine production (anti-CD19 CAR T cells [5]; 50 nM ibrutinib, some donors) was “modestly increased cytokine production”. For the same molecule, the cytokine concentrations (anti-CD19 CAR T cells [5]; physiological concentrations of ibrutinib) was “did not significantly decrease cytokine concentrations”, the “population 4 (CD4+CD44hi CXCR3 CD45RAhi CD62Lhi) as share of CAR-T cells” value (anti-CD19 CAR+ T cells [6]; bone marrow, ibrutinib-treated animals) was 15.2% and the “populations 2 and 4 in bone marrow vs control mice” value (anti-CD19 CAR+ T cells [6]; CAR T plus ibrutinib) was “increase”. For the same molecule, the “tumor growth vs CAR T with vehicle” value ([7]; ibrutinib 25 mg/kg/day in drinking water plus CAR T) was “significantly (P<0.001) decreased tumor growth”, the “median survival vs CAR T + vehicle” value ([7]; ibrutinib 25 mg/kg/day in drinking water plus suboptimal anti-CD19 CAR-T cells, p<0.001) was “increased median survival” and the “median survival vs CAR T + vehicle” value ([8]; ibrutinib 25 mg/kg qd P.O. plus suboptimal anti-CD19 CAR T cells, FIG. 6C) was “increased median survival”. For the same molecule, the “tumor growth vs CAR-T cells and vehicle” value ([8]; ibrutinib 25 mg/kg qd P.O. plus suboptimal dose anti-CD19 CAR T cells) was “significantly decreased tumor growth”, the “tumor burden (average radiance) vs vehicle” value ([8]; ibrutinib alone, 25 mg/kg qd P.O., no CAR-T cells) was “no effect on tumor burden” and the “survival at greater time points vs CAR T and vehicle” value ([8]; ibrutinib plus CAR T, two donors, FIG. 6D, p<0.001) was “significantly increased survival”. For the same molecule, the “percentage of TH1 cells” value (anti-CD19 CAR T cells [9]; 500 nM, 18-day serial stimulation, P<0.01) was “further enhanced the percentage of TH1 cells”, the “additional CAR T activation or memory markers” value (anti-CD19 CAR T cells [9]; CAR T cells from serial stimulation assay) was “No significant effects” and the “percentage of CAR+ T cells with TH1 phenotype (CD4+CXCR3+CRTH2−)” value (anti-CD19 CAR T cells [9]; after serial stimulation, greater with increasing concentrations) was “increase the percentage”. The “expression of truncated EGFR, CD25, CD38, CD39, CD95, CD62L, CCR7, CD45RO” value (anti-CD19 CAR T cells [10]; 5000, 500, 50, 5 and 0.5 nM, 3 donors, up to 4 days) was “no significant effect”, the “phenotype as central (TCM) or effector (TEM) memory subsets (CCR7, CD45RA)” value (anti-CD19 CAR T cells [10]; over four days after stimulation) was “did not affect the phenotype” and the “expression levels of CD69, CD107a or PD-1 on CD4+ or CD8+ cells” value (anti-CD19 CAR T cells [10]; seen at highest (supraphysiological) concentration) was “subtle decrease”. For the same molecule, the “CD62L expression by flow cytometry” value (anti-CD19 CAR T cells [11]; after 18 days serial stimulation, donors 2 and 3) was “significant increase in CD62L expression”, the “cell numbers and population doublings” value (anti-CD19 CAR T cells [11]; day 18, 50 and 500 nM, two of three donors) was “enhanced cell numbers and population doublings” and the cell counts (anti-CD19 CAR T cells [11]; donor 3, day 18, highest concentration tested) was “Non-significant, increased cell counts”. For the same molecule, the gene expression changes (CAR-expressing T cells; 50 nM) was “not significant, similar trends”, the “number of protein-coding genes with significantly altered expression” value (CAR-expressing T cells; 500 nM, FDR<0.05, absLog2FC>0.5) was 23 and the “expression of HES6, HIC1, LZTFL1, NRIP1, CD38 and RARRES3” value (CAR-expressing T cells; ibrutinib vs control) was “downregulation”. The “expression of MSC” value (CAR-expressing T cells; ibrutinib vs control) was “upregulation”, the “expression of SELL/CD62L” value (CAR-expressing T cells; ibrutinib vs control) was “increases” and the “expression of granzyme A and CD38” value (CAR-expressing T cells; ibrutinib vs control) was “decreases”.

Reference: US20190298772A1, “COMBINATION THERAPY OF A T CELL-BASED THERAPY AND A BTK INHIBITOR” (Juno Therapeutics, Inc., priority 2016, published 2019)
